Reference: patent US20210369677A1, “SMALL MOLECULE ACTIVATORS OF POLYCYSTIN-2 (PKD2) AND USES THEREOF” (Northwestern University, priority 2020, published 2021)

Target: T1, polycystin-2 (Homo sapiens, UniProt Q13563, C437S/C632S)
T1 construct: expressed in transfected cells
T1 sequence (Q13563 1-968 C437S/C632S): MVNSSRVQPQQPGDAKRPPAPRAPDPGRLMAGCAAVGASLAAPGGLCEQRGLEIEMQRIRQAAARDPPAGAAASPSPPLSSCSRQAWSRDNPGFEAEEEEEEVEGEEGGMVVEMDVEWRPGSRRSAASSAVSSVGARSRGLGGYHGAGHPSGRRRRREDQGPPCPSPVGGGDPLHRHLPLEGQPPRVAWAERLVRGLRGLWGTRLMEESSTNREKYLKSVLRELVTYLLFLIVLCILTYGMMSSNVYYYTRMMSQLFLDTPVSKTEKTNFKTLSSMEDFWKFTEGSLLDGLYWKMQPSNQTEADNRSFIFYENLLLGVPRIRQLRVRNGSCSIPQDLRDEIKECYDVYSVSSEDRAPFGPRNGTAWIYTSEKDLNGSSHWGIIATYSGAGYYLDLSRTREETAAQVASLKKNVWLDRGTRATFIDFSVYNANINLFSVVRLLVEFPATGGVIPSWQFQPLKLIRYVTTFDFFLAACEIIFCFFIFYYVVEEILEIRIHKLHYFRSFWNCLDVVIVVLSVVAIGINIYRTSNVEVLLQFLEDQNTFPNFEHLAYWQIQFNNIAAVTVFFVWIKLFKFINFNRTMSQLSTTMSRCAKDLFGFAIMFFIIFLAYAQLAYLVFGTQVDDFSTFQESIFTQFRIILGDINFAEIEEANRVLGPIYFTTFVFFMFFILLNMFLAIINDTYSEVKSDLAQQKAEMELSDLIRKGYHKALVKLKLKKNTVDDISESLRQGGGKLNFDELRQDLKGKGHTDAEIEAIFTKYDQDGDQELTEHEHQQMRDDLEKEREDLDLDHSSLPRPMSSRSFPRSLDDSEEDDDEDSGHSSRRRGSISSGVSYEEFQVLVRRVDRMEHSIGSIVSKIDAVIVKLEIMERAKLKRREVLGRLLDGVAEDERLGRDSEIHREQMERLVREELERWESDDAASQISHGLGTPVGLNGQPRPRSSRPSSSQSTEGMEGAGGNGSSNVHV
Format: cell-based
Conditions: C437S:C632S double mutant
Excerpt: Generation of HEK PKD2^Null cells line and the stable expression PKD2 variants. To generate the HEK PKD2^Null cell lines, we used a CRISPR/Cas9 gene editing kit available from Addgene (kit 1000000055). HEK 293 cells were electro-transfected with sgRNAs (caccg[…] and aaac[…]c) with the All-in-one Cas9 plasmid. […] Cells generated from single cell clones were selected after 4 weeks of expansion in a 96-wells plate. […] To generate the WT and variant PKD2 GFP or mCherry C-terminally tagged variant cell lines, the hPKD gene was subcloned into lentiviral pLVX-mcherry-N1 (Clontech) or pLVX-GFP-N1 (Clontech) vector using the Gibson assembly method. A linker encoding for six glycine residues was added between the PKD2 gene and the C-terminal tags, and missense variants were generated using standard, site-directed mutagenesis. The third-generation lentiviral packaging plasmids used for stable expression contained: pMDLg/pRRE (Addgene), […] pRSV-Rev (Addgene), and envelope expressing plasmid pMD2.G (Addgene). LentiX-293T cells (Takara) were transfected with polyethylineimine (Polysciences) at a 4:1:1:1 ratio of the transgene and viral packaging constructs. Supernatants were collected 48 and 72 hours post transfection and filtered through a 0.45 μm syringe filter. Lentiviral supernatant was concentrated 100 times using 1 volume of PEG-it (System Biosciences) virus precipitation solution and 4 volume of lentivirus-containing supernatant. The PEG-it and supernatant mixture were kept at 4 degrees for 24 hours and centrifuged at 1500 rpm for 30 minutes. The pellet containing lentivirus was resuspended with 1/100th volume of PBS of the original supernatant volume. HEK cells were infected with the lentivirus supernatant; PKD2-GFP or PKD2-mCherry expression was selected using culture media containing puromycin (2 μg/ml) for 30 to 90 days. Cells were then fluorescence-activated cell sorted (BD FacsMelody) at 5000 to 10,000 counts per minute to enrich for the transgene expression. Stable cell lines were cultured in Dulbecco's modified essential medium (DMEM) supplemented with 10% fetal bovine serum (FBS) and 100 units/ml penicillin, 100 units/ml streptomycin and 1 μg/ml puromycin selection antibiotic.
Electrophysiology. Ciliary ion currents were recorded using borosilicate glass electrodes polished to resistances of 14-22 MΩ using the cilium patch method previously described^32. Whole cell electrodes used to measure poly cystin-2L1 currents were fire polished to 1.5-4 MΩ resistances. Unless otherwise stated, whole cilia ionic currents were recorded in symmetrical [Na^+]. The pipette standard internal solution contained (in mM): 90 NaMES, 10 NaCl, 10 HEPES, 10 Na4-BAPTA (Glycine, N, N′-[1,2-ethanediylbis(oxy-2,1-phenylene)]bis[N-(carboxymethyl)]-,tetrasodium); pH was adjusted to 7.3 using NaOH. Standard bath solution contained 140 NaCl, 10 HEPES, 1.8 CaCl2); pH 7.4. All solutions were osmotically balanced to 295 (±6) mOsm with mannitol. Extracellular solutions containing TCEP and GSH were used within six hours of formulation. Data were collected using an Axopatch 200B patch clamp amplifier, Digidata 1440A, and pClamp 10 software. Whole-cilium and excised patch currents were digitized at 25 kHz and low-pass filtered at 10 kHz. In the whole cilium configuration, the holding potential was −60 mV and then depolarized using a 400 ms voltage ramp from −100 mV to 100 mV. The whole cell recordings of polycystin-2L1 currents were either activated by the same ramp protocol or by 100 ms depolarizations to 100 mV from a −100 mV holding potential.

Structure (SMILES) | Effect on C437S:C632S double mutant channel cilia current
N[C@@H](CCC(=O)N[C@@H](CS)C(=O)NCC(=O)O)C(=O)O [GSH, reduced glutathione] | retained its sensitivity
O=C(O)CCP(CCC(=O)O)CCC(=O)O [TCEP, tris-2-carboxyethyl phosphine] | retained its sensitivity
